According to ChEMBL document CHEMBL5500372, “Novel natural osthole-inspired amphiphiles as membrane targeting antibacterials against methicillin-resistant Staphylococcus aureus (MRSA)” (Eur J Med Chem, 2024):
Active and inactive are the calls of the source. The calls are words filed in the database; no cut-off is given here.

Key:
Staphylococcus aureus [1] = assay: Antibacterial activity against Staphylococcus aureus ATCC 29213 measured after 18 hrs by CLSI based broth microdilution method; type: functional
[2] = Toxicity in female KM mouse skin abscess model infected with methicillin-resistant Staphylococcus aureus clinical isolate 16 assessed as histological abnormalities in heart at 5 to 10 mg/kg, sc measured after 24 hrs by H and E staining based analysis; type: organism-based; conditions: in vivo, dose 5-10 mg/kg
[3] = Toxicity in female KM mouse assessed as survival at 80 mg/kg, sc measured after 24 hrs; type: organism-based; conditions: in vivo
[4] = Toxicity in female KM mouse assessed as effect on lung at 20 mg/kg, sc measured after 24 hrs by H and E staining based analysis; type: organism-based; conditions: in vivo
Staphylococcus aureus [5] = assay: Antibacterial activity against methicillin-resistant Staphylococcus aureus clinical isolate 16 infected in female KM mouse skin abscess model assessed as healthy skin on back at 10 mg/kg, sc measured after 24 hrs; type: functional, organism-based
Cell membrane [6] = assay: Disruption of cell membrane in methicillin-resistant Staphylococcus aureus clinical isolate 16 assessed as appearance of broken surface at 16 ug/ml measured after 4 hrs by SEM analysis; type: cell membranes; conditions: dose 16.0 µg/ml
[7] = Toxicity in female KM mouse assessed as effect on hematocrit in blood at upto 20 mg/kg, sc measured after 24 hrs; type: organism-based; conditions: in vivo
Cell membrane [8] = assay: Induction of cytoplasmic membrane permeabilization in methicillin-resistant Staphylococcus aureus clinical isolate 16 assessed as fold increase in fluorescence intensity at 32 time MIC measured after 35 mins by SYTOX green dye based fluorescence analysis
[9] = Toxicity in female KM mouse assessed as effect on mean corpuscular volume at upto 20 mg/kg, sc measured after 24 hrs; type: organism-based; conditions: in vivo
[10] = Cytotoxicity in human L02 cells assessed as survival rate at 16 ug/ml measured after 24 hrs by CCK-8 method relative to control; type: toxicity, cell-based; conditions: at 16 µg/mL, read-out: Survival
Cell membrane [11] = assay: Induction of cytoplasmic membrane depolarization in methicillin-resistant Staphylococcus aureus clinical isolate 16 assessed as fold increase in fluorescence intensity at 32 time MIC measured after 35 mins by DiSC3-5 dye based fluorescence method
Cell membrane [12] = assay: Disruption of cell membrane in methicillin-resistant Staphylococcus aureus clinical isolate 16 assessed as increase in red fluorescence at 8 times MIC measured after 4 hrs by DAPI and PI staining based laser confocal microscopy based analysis; type: cell membranes
[13] = Toxicity in female KM mouse assessed as effect on kidney at 20 mg/kg, sc measured after 24 hrs by H and E staining based analysis; type: organism-based; conditions: in vivo
Cell membrane [14] = assay: Induction of cell membrane disruption in methicillin-resistant Staphylococcus aureus clinical isolate 16 assessed as intact cells (Q3 region) at 64 ug/ml measured after 2 hrs by SYTO-9 and PI staining based flow cytometry analysis (reference value: 96.0%); type: cell membranes; conditions: dose 64.0 µg/ml
Staphylococcus aureus [15] = assay: Antibacterial activity against methicillin-resistant Staphylococcus aureus clinical isolate 11 measured after 18 hrs by CLSI based broth microdilution method; type: functional
[16] = Toxicity in female KM mouse assessed as effect on histopathological abnormalities in liver at 20 mg/kg, sc measured after 24 hrs by H and E staining based analysis; type: organism-based; conditions: in vivo
Staphylococcus aureus [17] = assay: Antibacterial activity against Staphylococcus aureus ATCC 29213 at sub-MIC concentration measured after 20 passages by CLSI micro broth dilution method; type: functional, organism-based
[18] = Toxicity in female KM mouse skin abscess model infected with methicillin-resistant Staphylococcus aureus clinical isolate 16 assessed as histological abnormalities in kidney at 5 to 10 mg/kg, sc measured after 24 hrs by H and E staining based analysis; type: organism-based; conditions: in vivo, dose 5-10 mg/kg
Cell membrane [19] = assay: Disruption of cell membrane in methicillin-resistant Staphylococcus aureus clinical isolate 16 assessed as increase in DNA leakage incubated for 4 hrs by microspectrophotometric analysis; type: cell membranes; conditions: dose <= 8.0 µg/ml
[20] = Toxicity in female KM mouse assessed as adverse effect on back skin at 5 to 20 mg/kg, sc measured after 24 hrs; type: organism-based; conditions: in vivo, dose 5-20 mg/kg
Staphylococcus aureus [21] = assay: Antibacterial activity against methicillin-resistant Staphylococcus aureus clinical isolate 16 infected in female KM mouse skin abscess model assessed as reduction in IL-6 level at 5 to 10 mg/kg, sc measured after 24 hrs by ELISA method; type: functional, organism-based; conditions: dose 5-10 mg/kg
[22] = Toxicity in female KM mouse assessed as effect on histopathological abnormalities in heart at 20 mg/kg, sc measured after 24 hrs by H and E staining based analysis; type: organism-based; conditions: in vivo
Cell membrane [23] = assay: Induction of cell membrane disruption in methicillin-resistant Staphylococcus aureus clinical isolate 16 assessed as intact cells (Q3 region) at 16 ug/ml measured after 2 hrs by SYTO-9 and PI staining based flow cytometry analysis (reference value: 96.0%); type: cell membranes; conditions: dose 16.0 µg/ml
Cell membrane [24] = assay: Induction of cell membrane disruption in methicillin-resistant Staphylococcus aureus clinical isolate 16 assessed as dead cells (Q1 region) at 64 ug/ml measured after 2 hrs by SYTO-9 and PI staining based flow cytometry analysis (reference value: 0%); type: cell membranes; conditions: dose 64.0 µg/ml
[25] = Toxicity in female KM mouse assessed as effect on CREA at upto 20 mg/kg, sc measured after 24 hrs by biochemical test; type: organism-based; conditions: in vivo
Staphylococcus aureus [26] = assay: Antibacterial activity against methicillin-resistant Staphylococcus aureus clinical isolate 16 infected in female KM mouse skin abscess model assessed as effect on abscess in back skin at 5 mg/kg, sc measured after 24 hrs; type: functional, organism-based
Staphylococcus aureus [27] = assay: Antibacterial activity against methicillin-resistant Staphylococcus aureus clinical isolate 16 measured after 18 hrs in presence of phosphatidylethanolamine by checkerboard broth dilution method; type: functional, organism-based
Staphylococcus aureus [28] = assay: Antibacterial activity against methicillin-resistant Staphylococcus aureus clinical isolate 17 measured after 18 hrs by CLSI based broth microdilution method; type: functional
[29] = Toxicity in female KM mouse skin abscess model infected with methicillin-resistant Staphylococcus aureus clinical isolate 16 assessed as histological abnormalities in liver at 5 to 10 mg/kg, sc measured after 24 hrs by H and E staining based analysis; type: organism-based; conditions: in vivo, dose 5-10 mg/kg
Staphylococcus aureus [30] = assay: Antibacterial activity against methicillin-resistant Staphylococcus aureus clinical isolate 16 infected in female KM mouse skin abscess model assessed as reduction in TNF-alpha level at 5 to 10 mg/kg, sc measured after 24 hrs by ELISA method; type: functional, organism-based; conditions: dose 5-10 mg/kg
Staphylococcus aureus [31] = assay: Antibacterial activity against methicillin-resistant Staphylococcus aureus clinical isolate 16 infected in female KM mouse skin abscess model assessed as log reduction in bacterial load at 5 mg/kg, sc measured after 24 hrs (reference value: 8.508 log10CFU/g); type: functional
Staphylococcus aureus [32] = assay: Antibacterial activity against methicillin-resistant Staphylococcus aureus clinical isolate 16 infected in female KM mouse skin abscess model assessed as effect on skin abscess at 10 mg/kg, sc measured after 24 hrs; type: functional, organism-based
[33] = Toxicity in female KM mouse assessed as effect on white blood cell at upto 20 mg/kg, sc measured after 24 hrs; type: organism-based; conditions: in vivo
[34] = Toxicity in female KM mouse assessed as effect on spleen at 20 mg/kg, sc measured after 24 hrs by H and E staining based analysis; type: organism-based; conditions: in vivo
[35] = Stability in 50% sheep blood plasma measured after 6 hrs; type: ADME, cell-free, Ovis aries
[36] = Toxicity in female KM mouse skin abscess model infected with methicillin-resistant Staphylococcus aureus clinical isolate 16 assessed as histological abnormalities in lung at 5 to 10 mg/kg, sc measured after 24 hrs by H and E staining based analysis; type: organism-based; conditions: in vivo, dose 5-10 mg/kg

With CCCCCCNC(=O)C[N+](C)(C)CCCCCOc1ccc2ccc(=O)oc2c1CC=C(C)C.[Br-] the MIC (Staphylococcus aureus [1]) was 1 µg/mL, the Activity [2] was “Non-Toxic” and the Activity [3] was “Non-Toxic”. For the same molecule, the Activity [4] was “Non-Toxic”, the Activity (Staphylococcus aureus [5]) was “Active” and the Activity (Cell membrane [6]) was “Active”. For the same molecule, the Activity [7] was “Non-Toxic”, the fold change (FC) (Cell membrane [8]) was 50 and the Activity [9] was “Non-Toxic”. For the same molecule, the viability at 24 h, 16 ug/ml [10] was 60%, the fold change (FC) (Cell membrane [11]) was 5 and the Activity (Cell membrane [12]) was “Active”. The Activity [13] was “Non-Toxic”, the Activity (Cell membrane [14]) was 0% and the MIC (Staphylococcus aureus [15]) was 1 µg/mL. For the same molecule, the Activity [16] was “Non-Toxic”, the Activity (Staphylococcus aureus [17]) was “inactive” and the Activity [18] was “Non-Toxic”. For the same molecule, the Activity (Cell membrane [19]) was “Dose-Dependent Effect”, the Activity [20] was “Non-Toxic” and the Activity (Staphylococcus aureus [21]) was “Active”. For the same molecule, the Activity [22] was “Non-Toxic”, the Activity (Cell membrane [23]) was 1.1% and the Activity (Cell membrane [24]) was 96.2%. The Activity [25] was “Non-Toxic”, the Activity (Staphylococcus aureus [26]) was “Active” and the Activity (Staphylococcus aureus [27]) was “Active”. The MIC (Staphylococcus aureus [28]) was 1 µg/mL, the Activity [29] was “Non-Toxic” and the Activity (Staphylococcus aureus [30]) was “Active”. The Activity (Staphylococcus aureus [31]) was 2.962 log10CFU/g, the Activity (Staphylococcus aureus [32]) was “inactive” and the Activity [33] was “Non-Toxic”. For the same molecule, the Activity [34] was “Non-Toxic”, the Stability [35] was “Stable” and the Activity [36] was “Non-Toxic”.
